Experimental data taken from PMC10444021, “Design and synthesis of new spirooxindole candidates and their selenium nanoparticles as potential dual Topo I/II inhibitors, DNA intercalators, and apoptotic inducers” (Journal of Enzyme Inhibition and Medicinal Chemistry, 2023).
In brackets after ≈: the same amount, converted by molar mass.

Tests used:
HepG2 = assay: MTT cytotoxicity, HepG2; format: cell-based; conditions: Homo sapiens, mean ± SD
Description: (§1) The cytotoxic activities of the constructed members were assessed via the reported MTT method[49–52] (Supporting information).
(§2) The cytotoxic screening was performed using the MTT assay. […] Besides, the HCT-116 one was sensitive to only two samples, while the MCF7 was sensitive to one sample only. Two standard cytotoxic drugs: Dox and 5-fluorouracil (5-FU) were also applied on the same used cancer cell lines as references.

Caco-2 = assay: MTT cytotoxicity, Caco-2; format: cell-based; conditions: Homo sapiens, mean ± SD
Description: as §1, §2

A-549 = assay: MTT cytotoxicity, A-549; format: cell-based; conditions: Homo sapiens, A549, mean ± SD
Description: as §1, §2

Topo II = Topo II inhibitory assay; format: biochemical
Description: (§3) The tested members were subjected to Topo I inhibitory activity evaluation using the previously reported method. While the Topo II inhibitory assay was done according to the method described by Patra et al.[55] (Supporting information).
(§4) Thus, compounds 5b and 7d in addition to their nano complexes 5b NPs and 7d NPs were evaluated for their enzyme inhibitory effects.

DNA = DNA intercalation assay (linear DNA formation); format: biochemical; conditions: even at low concentrations; gel
Description: The reported procedure by Atwal et al. was our guide to test the DNA intercalating ability of our candidates[56] (Supporting information).
The ability of the designed members to intercalate onto the DNA molecules and increase the levels of Topo I–DNA as well as Topo II-DNA cleavage complexes by stabilising the enzymes–DNA covalent complexes were also assayed. Thus, the amount of linear DNA formed by compounds 5b and 7d, in addition to their nanoforms 5b NPs and 7d NPs, was measured. […] As so, the designed congeners were then considered promising DNA intercalating members (Figure 11).

Topo I = molecular target: T1, Topo I (Homo sapiens, UniProt P11387); assay: Topo I inhibitory assay; format: biochemical
T1 sequence (P11387 1-765): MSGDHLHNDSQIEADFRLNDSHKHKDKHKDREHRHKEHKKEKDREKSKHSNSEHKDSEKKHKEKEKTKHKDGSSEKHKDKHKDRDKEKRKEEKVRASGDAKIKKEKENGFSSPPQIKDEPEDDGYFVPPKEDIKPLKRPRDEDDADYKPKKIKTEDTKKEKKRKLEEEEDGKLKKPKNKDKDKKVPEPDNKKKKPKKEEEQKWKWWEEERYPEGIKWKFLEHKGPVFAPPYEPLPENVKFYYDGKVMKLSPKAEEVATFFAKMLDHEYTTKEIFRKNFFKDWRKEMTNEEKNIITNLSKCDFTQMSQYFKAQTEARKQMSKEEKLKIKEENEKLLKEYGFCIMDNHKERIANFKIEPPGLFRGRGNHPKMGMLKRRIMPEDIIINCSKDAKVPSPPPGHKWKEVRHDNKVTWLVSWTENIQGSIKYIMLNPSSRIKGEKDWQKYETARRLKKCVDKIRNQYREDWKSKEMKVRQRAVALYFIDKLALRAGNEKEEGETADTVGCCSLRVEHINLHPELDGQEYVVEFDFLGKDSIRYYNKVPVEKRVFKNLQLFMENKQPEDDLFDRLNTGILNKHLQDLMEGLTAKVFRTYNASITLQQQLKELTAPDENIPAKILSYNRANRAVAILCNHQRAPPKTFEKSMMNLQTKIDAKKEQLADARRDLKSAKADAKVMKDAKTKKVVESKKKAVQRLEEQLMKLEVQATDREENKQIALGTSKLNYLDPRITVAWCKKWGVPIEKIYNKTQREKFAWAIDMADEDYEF
Description: as §3, §4

HCT-116 = assay: MTT cytotoxicity, HCT-116; format: cell-based; conditions: Homo sapiens, mean ± SD
Description: as §1, §2

MCF7 = assay: MTT cytotoxicity, MCF7; format: cell-based; conditions: Homo sapiens, mean ± SD
Description: as §1, §2

[1] = Cytotoxic effects on normal bone marrow cells; format: cell-based, mice; conditions: mouse, mean ± SD
Description: as §1
The dose–response curves for the nanoform on each cell line are shown in the Supporting information, and the respective IC50s are shown in Table 3. The most promising cytotoxic samples were further investigated for their cytotoxic effects on normal mice bone marrow cells. The overall trending results were increasing the proliferation of the bone marrow cells at high concentrations of the samples, especially the 5b NPs nanoform sample, which reached up to 200% compared to the untreated cells. The dose–response curves on the bone marrow cells are represented in the Supporting information.

Row | melting point [°C] | IC50 (Topo II) [µM] | IC50 (Topo I) [µM] | Compound | IC50 (HepG2) [µg/mL] | IC50 (Caco-2) [µg/mL] | IC50 (A-549) [µg/mL] | formation of linear DNA (DNA) | IC50 (HCT-116) [µg/mL] | IC50 (MCF7) [µg/mL] | IC50 [1] [µg/mL]
1 | > 300 | – | – | CCn1c2c(c(=O)[nH]c1=O)C1(C(=O)Nc3ccccc31)c1c(n(CC)c(=O)[nH]c1=O)N2 [Compound 3, 1′,9′-Diethyl-1′H-spiro[indoline-3,5′-pyrido[2,3-d:6,5-d′]dipyrimidine]-2,2′,4′,6′,8′(3′H,7′H,9′H,10′H)-pentaone] | – | 259 ± 9.4 (≈ 614 µM) | 291 ± 16.4 (≈ 689 µM) | – | – | – | –
2 | – | 2.66 | 0.419 | O=C1Nc2ccc(Cl)cc2C12c1c(n(Cc3ccccc3)c(=O)[nH]c1=O)Nc1c2c(=O)[nH]c(=O)n1Cc1ccccc1 [Compound 7d, 1′,9′-Dibenzyl-5-chloro-1′H-spiro[indoline-3,5′-pyrido[2,3-d:6,5-d′]dipyrimidine]-2,2′,4′, 6′,8′(3′H,7′H,9′H,10′H)-pentaone] | 91.4 ± 11.3 (≈ 157 µM) | – | 329 ± 12.5 (≈ 566 µM) | considerable formation of linear DNA | – | – | –
3 | > 300 | – | – | Cn1c2c(c(=O)[nH]c1=O)C1(C(=O)Nc3ccc([N+](=O)[O-])cc31)c1c(n(C)c(=O)[nH]c1=O)N2 [Compound 5a, 1′,9′-Dimethyl-5-nitro-1′H-spiro[indoline-3,5′-pyrido[2,3-d:6,5-d′]dipyrimidine]-2,2′,4′,6′,8′(3′H,7′H,9′H,10′H)-pentaone] | 563 ± 25.5 (≈ 1280 µM) | 207 ± 19.4 (≈ 471 µM) | – | – | – | – | –
4 | > 300 | – | – | Cn1c2c(c(=O)[nH]c1=S)C1(C(=O)Nc3ccc([N+](=O)[O-])cc31)c1c(n(C)c(=S)[nH]c1=O)N2 [Compound 5c, 1′,9′-Dimethyl-5-nitro-2′,8′-dithioxo-2′,3′,8′,9′-tetrahydro-1′H-spiro[indoline-3,5′-pyrido[2,3-d:6,5-d′]dipyrimidine]-2,4′,6′(7′H,10′H)-trione] | 250 ± 19.3 (≈ 531 µM) | 247 ± 12.5 (≈ 525 µM) | 525 ± 50.6 (≈ 1110 µM) | – | 186 ± 19.4 (≈ 394 µM) | – | –
5 | > 300 | – | – | CCn1c2c(c(=O)[nH]c1=O)C1(C(=O)Nc3ccc(Cl)cc31)c1c(n(CC)c(=O)[nH]c1=O)N2 [Compound 7b, 5-Chloro-1′,9′-diethyl-1′H-spiro[indoline-3,5′-pyrido[2,3-d:6,5-d′]dipyrimidine]-2,2′,4′, 6′,8′(3′H,7′H,9′H,10′H)-pentaone] | – | – | – | – | – | 171 ± 22.8 (≈ 374 µM) | –
6 | > 300 | – | – | O=C1Nc2ccc([N+](=O)[O-])cc2C12c1c(n(Cc3ccccc3)c(=O)[nH]c1=O)Nc1c2c(=O)[nH]c(=O)n1Cc1ccccc1 [Compound 5d, 1′,9′-Dibenzyl-5-nitro-1′H-spiro[indoline-3,5′-pyrido[2,3-d:6,5-d′]dipyrimidine]-2,2′,4′,6′,8′(3′H,7′H,9′H,10′H)-pentaone] | 422 ± 22.8 (≈ 713 µM) | 108 ± 10 (≈ 183 µM) | 279 ± 18.9 (≈ 472 µM) | – | – | – | –
7 | – | 4.47 | 0.651 | CCn1c2c(c(=O)[nH]c1=O)C1(C(=O)Nc3ccc([N+](=O)[O-])cc31)c1c(n(CC)c(=O)[nH]c1=O)N2 [Compound 5b, 1′,9′-Diethyl-5-nitro-1′H-spiro[indoline-3,5′-pyrido[2,3-d:6,5-d′]dipyrimidine]-2,2′,4′,6′,8′(3′H,7′H,9′H,10′H)-pentaone] | 114 ± 10.1 (≈ 243 µM) | 35.2 ± 4.1 (≈ 75.3 µM) | – | considerable formation of linear DNA | – | – | –

Continued, molecule first:

Row | Compound | melting point [°C] | IC50 (Topo II) [µM] | IC50 (Topo I) [µM] | IC50 (HepG2) [µg/mL] | IC50 (Caco-2) [µg/mL] | IC50 (A-549) [µg/mL] | formation of linear DNA (DNA) | IC50 (HCT-116) [µg/mL] | IC50 (MCF7) [µg/mL] | IC50 [1] [µg/mL]
8 | O=C1Nc2ccc([N+](=O)[O-])cc2C12c1c([nH]c(=O)[nH]c1=O)Nc1[nH]c(=O)[nH]c(=O)c12 [Compound 5e, 5-Nitro-1′H-spiro[indoline-3,5′-pyrido[2,3-d:6,5-d′]dipyrimidine]-2,2′,4′,6′,8′(3′H,7′H,9′H,10′H)-pentaone] | > 300 | – | – | 147 ± 10.5 (≈ 357 µM) | 233 ± 19.2 (≈ 566 µM) | – | – | – | – | –
9 | O=C1Nc2ccc(Cl)cc2C12c1c([nH]c(=O)[nH]c1=O)Nc1[nH]c(=O)[nH]c(=O)c12 [Compound 7e, 5-Chloro-1′H-spiro[indoline-3,5′-pyrido[2,3-d:6,5-d′]dipyrimidine]-2,2′,4′,6′,8′(3′H,7′H,-9′H,10′H)-pentaone] | – | – | – | 89.7 ± 6.5 (≈ 224 µM) | 472 ± 23.6 (≈ 1180 µM) | – | – | 435 ± 39.5 (≈ 1080 µM) | – | –
10 | O=c1[nH]cc(F)c(=O)[nH]1 [Compound 5-FU, 5-fluorouracil, reference compound] | – | – | – | 103 ± 9.8 (≈ 792 µM) | 4.4 ± 0.3 (≈ 33.8 µM) | 1.1 ± 0.1 (≈ 8.46 µM) | – | 76.3 ± 6.8 (≈ 587 µM) | 39.3 ± 2.9 (≈ 302 µM) | 103 ± 9.8 (≈ 792 µM)
11 | Cn1c2c(c(=O)[nH]c1=S)C1(C(=O)Nc3ccc(Cl)cc31)c1c(n(C)c(=S)[nH]c1=O)N2 [Compound 7c, 5-Chloro-1′,9′-dimethyl-2′,8′-dithioxo-2′,3′,8′,9′-tetrahydro-1′H-spiro[indoline-3,5′-pyrido [2,3-d:6,5-d′]dipyrimidine]-2,4′,6′(7′H,10′H)-trione] | > 300 | – | – | – | – | – | – | – | – | –
12 | COc1cccc2c1C(=O)c1c(O)c3c(c(O)c1C2=O)C[C@@](O)(C(=O)CO)C[C@@H]3O[C@H]1C[C@H](N)[C@H](O)[C@H](C)O1 [Dox, doxorubicin, reference compound] | – | – | – | 0.3 ± 0.01 (≈ 0.552 µM) | 3.7 ± 0.2 (≈ 6.81 µM) | 0.04 ± 0.003 (≈ 0.0736 µM) | – | 1.1 ± 0.1 (≈ 2.02 µM) | 5.9 ± 0.5 (≈ 10.9 µM) | 0.3 ± 0.01 (≈ 0.552 µM)
13 | Cn1c2c(c(=O)[nH]c1=O)C1(C(=O)Nc3ccc(Cl)cc31)c1c(n(C)c(=O)[nH]c1=O)N2 [Compound 7a, 5-Chloro-1′,9′-dimethyl-1′H-spiro[indoline-3,5′-pyrido[2,3-d:6,5-d′]dipyrimidine]-2,2′,4′, 6′,8′(3′H,7′H,9′H,10′H)-pentaone] | – | – | – | 120 ± 9.2 (≈ 281 µM) | 113 ± 10.4 (≈ 263 µM) | 50.1 ± 5.9 (≈ 117 µM) | – | – | – | –
14 | Cn1c2c(c(=O)[nH]c1=O)C1(C(=O)Nc3ccc(F)cc31)c1c(n(C)c(=O)[nH]c1=O)N2 [Compound 9b, 5-Fluoro-1′,9′-dimethyl-1′H-spiro[indoline-3,5′-pyrido[2,3-d:6,5-d′]dipyrimidine]-2,2′,4′,6′,8′(3′H,7′H,9′H,10′H)-pentaone] | > 300 | – | – | 86.4 ± 7.4 (≈ 210 µM) | 492 ± 40.4 (≈ 1190 µM) | 293 ± 15.4 (≈ 710 µM) | – | – | – | –
